In this assay the test system is Mäusen. Nature of the assay: step down passive avoidance test (improvement of memory performance). It counts as in vivo, Mäuse. Particulars: Mus musculus, ip; mice, i.p. within 10 s after foot shock; retest after 24 h; compared with solvent controls; read-out: Dosis, bei der sich eine Verbesserung der Gedächtnisleistung zeigen lässt. The text has this:
Zur unmittelbaren Messung der Verbesserung der Gedächtnisleistung wird ein anderer passiver Vermeidungstest (step down passive avoidance test, Psychopharmacol. 63, 297-300 [1979]) verwendet: • Die Testvorrichtung besteht aus einer mit Tageslicht normal beleuchteten Box (50 x 50 x 50 cm) mit einem elektrisch leitenden Gitterrost, dessen Gitterstäbe (6 mm Durchmesser) in einem Abstand von jeweils 13 mm angeordnet sind. In der Mitte des Gitterrostes ist eine hölzerne Plattform (10 mm Höhe, 67 mm Durchmesser) angebracht, welche von einer Plastikröhre (20 cm hoch, 68 mm innerer Durchmesser) umgeben ist. Zur Durchführung des Trainings werden Gruppen von jeweils 30 männlichen Mäusen mit einem Körpergewicht von 20-22g verwendet, indem jeweils ein Tier auf die von der Plastikröhre umgebene Plattform gesetzt, nach 10 Sekunden die Plastikröhre entfernt und die Zeitdauer gemessen wird, welche das Tier zum Hinabsteigen und Berühren des Gitterrostes mit allen 4 Pfoten benötigt. Wenn alle 4 Pfoten den Gitterrost berühren, wird ein Fussschock (1 mA, 50 Hz, 1 Sekunde) verabreicht. Innerhalb von 10 Sekunden nach Verabreichung des Fussschocks werden die Testsubstanzen in Dosen von 3 mg/kg, 10 mg/kg und 30 mg/kg (für jede Dosis werden 30 Mäuse verwendet) als Lösung in physiologischer NaCl-Lösung oder deren Lösungsmittel (physiologische Natriumchloridlösung = Placebo) intraperitoneal verabreicht. […]

The structures appear in SMILES notation.

On to `NC(=O)CNC(=O)CNC(=O)CN1CCCC1=O` [N-[(2-Oxo-1-pyrrolidinyl)-acetyl]-glycyl-glycinamid], for which the minimal effective dose is 10 mg/kg.

Source of the values: patent publication EP0115472A2, “Pyrrolidinon derivatives and process for their preparation” (CIBA-GEIGY AG, priority 1983, dated 1984).
